Test results as given in ChEMBL document CHEMBL1201862, “PubChem BioAssay data set” (2004).
Activity calls are given as the source filed them.

Legend:
[1] = target: CAAX prenyl protease 1 (Saccharomyces cerevisiae S288c, UniProt P47154); assay: yeast CAAX protease Ste24 inhibition – biochemical, S. cerevisiae, plate reader, cherry-pick, dose response (AID 488815)
[2] = target: T1, CAAX prenyl protease 2 (Homo sapiens, UniProt Q9Y256); assay: inhibition of Ras-converting CAAX protease Rce1 – biochemical, yeast membranes, quenched-peptide fluorescence, cherry-pick, dose response (AID 588849)
T1 sequence (Q9Y256 whole entry): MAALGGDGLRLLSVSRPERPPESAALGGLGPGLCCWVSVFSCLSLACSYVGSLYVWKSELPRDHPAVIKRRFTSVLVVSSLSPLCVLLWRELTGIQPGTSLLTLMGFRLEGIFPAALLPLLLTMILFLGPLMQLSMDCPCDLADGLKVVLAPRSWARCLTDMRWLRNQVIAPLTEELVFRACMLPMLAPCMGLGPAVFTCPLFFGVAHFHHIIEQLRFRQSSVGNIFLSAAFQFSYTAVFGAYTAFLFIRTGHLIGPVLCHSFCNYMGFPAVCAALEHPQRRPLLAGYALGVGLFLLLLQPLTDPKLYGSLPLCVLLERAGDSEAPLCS

[3] = target: SUMO-activating enzyme (Homo sapiens, UniProt Q9UBT2); assay: blockers of UBC9-mediated SUMO conjugation – biochemical, AlphaScreen, SUMOylation inhibitor project, confirmation (AID 2018); type: functional
[4] = viability of PTEN-deleted HCT116 cells – cell-based, HCT116 PTEN knockout, dose response (AID 1047); type: functional;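 note: HCT116 colon tumor cells with PTEN knocked out; cells exposed to compound for 60 hours before readout; potency for loss of cell viability measured by luminescence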
[5] = Vero E6 cell cytotoxicity, dose response, cytotoxicity control for non-replicating M. tuberculosis project, secondary assay (AID 492998); type: functional, VeroE6; conditions: Vero C1008
[6] = THP-1 cell cytotoxicity, dose response, cytotoxicity control for non-replicating M. tuberculosis project (AID 489025); type: functional
[7] = Luminescence Cell-Based Dose Response HTS to Identify Inhibitors of 5'UTR Stem-Loop Driven Prion Protein mRNA Translation in H4 Neuroglioblastoma Cells. [Related pubchem assays: 1827 (Project Summary), 1813 (Primary HTS)]; type: functional
[8] = target: Beta-galactosidase (Escherichia coli, UniProt Q8VNN2); type: functional
[9] = target: T2, Kappa-type opioid receptor (Homo sapiens, UniProt P41145); type: functional
[10] = target: T3, Delta-type opioid receptor (Homo sapiens, UniProt P41143); assay: HTS Image-Based Screen for Agonists of the DOR Receptor. [Related pubchem assays (depositor defined):AID1777, AID1786, AID2133]; type: functional
[11] = target: T2, Kappa-type opioid receptor; type: functional; remark: listed apart in the source
[12] = alpha-synuclein stem-loop luciferase translation blockers – H4 neuroglioma cells, luminescence, confirmation (AID 1988); type: functional, cell-based
[13] = luciferase reporter signal suppression in cells – H4 neuroglioma cells, luminescence, dose response (AID 1990); type: functional, cell-based
[14] = target: Mu-type opioid receptor (Homo sapiens, UniProt P35372); assay: HTS Image-Based Screen for Agonists of the MOR Receptor. [Related pubchem assays (depositor defined):AID1777, AID1785, AID1786, AID2133]; type: functional;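 note: imaging of beta-arrestin GFP recruitment into spots after receptor activation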
[15] = target: T3, Delta-type opioid receptor; assay: HTS Image-Based Screen for Antagonists of the DOR Receptor. [Related pubchem assays (depositor defined):AID1777, AID1785, AID1786, AID2133]; type: functional
[16] = target: Cytochrome P450 3A4 (Homo sapiens, UniProt P08684);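 note: CYP3A4 tested as one member of a cytochrome P450 panel screen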
[17] = target: T4, Tyrosine-protein phosphatase non-receptor type 22 (Homo sapiens, UniProt Q9Y2R2); assay: SAR LYP1 Fluorescent Assay using OMFP substrate for In Vitro dose response studies - Set 3. [Related pubchem assays (depositor defined):AID1779, AID1784, AID2140, AID2686]; type: functional
T4 sequence (Q9Y2R2 whole entry): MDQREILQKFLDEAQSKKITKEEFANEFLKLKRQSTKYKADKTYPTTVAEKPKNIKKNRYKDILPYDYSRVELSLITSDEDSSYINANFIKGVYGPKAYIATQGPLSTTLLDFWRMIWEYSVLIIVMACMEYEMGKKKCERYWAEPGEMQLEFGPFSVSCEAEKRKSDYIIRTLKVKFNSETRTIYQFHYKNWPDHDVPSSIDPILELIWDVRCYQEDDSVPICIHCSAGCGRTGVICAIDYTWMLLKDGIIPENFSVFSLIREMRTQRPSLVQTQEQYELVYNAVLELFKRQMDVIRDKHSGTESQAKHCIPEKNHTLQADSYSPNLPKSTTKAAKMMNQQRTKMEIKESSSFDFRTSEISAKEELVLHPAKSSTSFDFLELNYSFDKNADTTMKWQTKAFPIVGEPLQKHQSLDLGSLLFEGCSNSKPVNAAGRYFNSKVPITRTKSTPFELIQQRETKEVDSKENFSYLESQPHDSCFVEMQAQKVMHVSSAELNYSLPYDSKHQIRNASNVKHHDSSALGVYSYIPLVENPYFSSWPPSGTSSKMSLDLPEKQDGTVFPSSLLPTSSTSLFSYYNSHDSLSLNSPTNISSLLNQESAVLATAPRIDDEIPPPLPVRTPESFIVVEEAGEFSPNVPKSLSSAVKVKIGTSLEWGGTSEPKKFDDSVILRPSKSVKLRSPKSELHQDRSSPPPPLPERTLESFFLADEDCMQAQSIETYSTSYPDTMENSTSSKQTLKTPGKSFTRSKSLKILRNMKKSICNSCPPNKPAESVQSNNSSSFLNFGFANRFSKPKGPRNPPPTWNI

[18] = target: T4, Tyrosine-protein phosphatase non-receptor type 22; assay: SAR LYP1 Fluorescent Assay using OMFP substrate for In Vitro dose response studies - Set 2. [Related pubchem assays (depositor defined):AID1779, AID1784, AID2140, AID449726, AID488869]; type: functional
[19] = target: T5, Tyrosine-protein phosphatase non-receptor type 7 (Homo sapiens, UniProt P35236); assay: inhibition of hematopoietic tyrosine phosphatase HePTP – biochemical, set 2, SAR follow-up (AID 449736); type: functional
T5 sequence (P35236 whole entry): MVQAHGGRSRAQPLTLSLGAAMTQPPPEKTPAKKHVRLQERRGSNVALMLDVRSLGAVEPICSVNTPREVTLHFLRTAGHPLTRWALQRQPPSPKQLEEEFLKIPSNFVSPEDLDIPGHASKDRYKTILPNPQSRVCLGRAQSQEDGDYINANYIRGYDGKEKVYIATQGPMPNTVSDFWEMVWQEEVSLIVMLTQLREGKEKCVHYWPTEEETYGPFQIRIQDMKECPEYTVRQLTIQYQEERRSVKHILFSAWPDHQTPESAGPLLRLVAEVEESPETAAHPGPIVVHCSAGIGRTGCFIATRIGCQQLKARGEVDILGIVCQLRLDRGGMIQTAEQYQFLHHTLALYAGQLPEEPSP

[20] = target: T4, Tyrosine-protein phosphatase non-receptor type 22; assay: inhibition of lymphoid tyrosine phosphatase LYP – biochemical, pCAP fluorogenic substrate, fluorescence, set 3, SAR follow-up (AID 449727); type: functional
[21] = target: T4, Tyrosine-protein phosphatase non-receptor type 22; assay: SAR LYP1 Fluorescent Assay using pCAP substrate for In Vitro dose response studies - Set 2. [Related pubchem assays (depositor defined):AID1779, AID1784, AID2135, AID449727]; type: functional

T2 sequence (P41145 whole entry): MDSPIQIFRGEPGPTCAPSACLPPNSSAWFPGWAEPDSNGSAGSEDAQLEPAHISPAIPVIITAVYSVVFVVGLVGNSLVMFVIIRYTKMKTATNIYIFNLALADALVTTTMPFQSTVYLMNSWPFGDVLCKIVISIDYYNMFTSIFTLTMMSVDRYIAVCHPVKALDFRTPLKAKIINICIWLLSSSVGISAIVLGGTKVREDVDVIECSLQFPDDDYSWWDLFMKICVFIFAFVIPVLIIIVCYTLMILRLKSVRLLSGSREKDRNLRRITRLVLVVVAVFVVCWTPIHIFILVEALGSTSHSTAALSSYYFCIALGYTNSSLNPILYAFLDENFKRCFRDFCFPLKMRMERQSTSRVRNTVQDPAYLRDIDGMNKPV
Chain of SUMO-activating enzyme (Q9UBE0 whole entry): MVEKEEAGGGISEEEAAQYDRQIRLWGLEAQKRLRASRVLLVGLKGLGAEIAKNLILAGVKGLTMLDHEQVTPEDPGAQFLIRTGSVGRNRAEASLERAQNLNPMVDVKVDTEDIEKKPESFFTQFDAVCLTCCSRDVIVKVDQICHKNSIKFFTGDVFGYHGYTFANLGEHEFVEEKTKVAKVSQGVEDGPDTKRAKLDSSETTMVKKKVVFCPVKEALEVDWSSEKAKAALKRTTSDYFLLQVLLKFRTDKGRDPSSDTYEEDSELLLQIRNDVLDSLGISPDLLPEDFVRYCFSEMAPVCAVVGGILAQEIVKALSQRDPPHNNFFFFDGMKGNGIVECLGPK
Chain of SUMO-activating enzyme (Q9UBT2 whole entry): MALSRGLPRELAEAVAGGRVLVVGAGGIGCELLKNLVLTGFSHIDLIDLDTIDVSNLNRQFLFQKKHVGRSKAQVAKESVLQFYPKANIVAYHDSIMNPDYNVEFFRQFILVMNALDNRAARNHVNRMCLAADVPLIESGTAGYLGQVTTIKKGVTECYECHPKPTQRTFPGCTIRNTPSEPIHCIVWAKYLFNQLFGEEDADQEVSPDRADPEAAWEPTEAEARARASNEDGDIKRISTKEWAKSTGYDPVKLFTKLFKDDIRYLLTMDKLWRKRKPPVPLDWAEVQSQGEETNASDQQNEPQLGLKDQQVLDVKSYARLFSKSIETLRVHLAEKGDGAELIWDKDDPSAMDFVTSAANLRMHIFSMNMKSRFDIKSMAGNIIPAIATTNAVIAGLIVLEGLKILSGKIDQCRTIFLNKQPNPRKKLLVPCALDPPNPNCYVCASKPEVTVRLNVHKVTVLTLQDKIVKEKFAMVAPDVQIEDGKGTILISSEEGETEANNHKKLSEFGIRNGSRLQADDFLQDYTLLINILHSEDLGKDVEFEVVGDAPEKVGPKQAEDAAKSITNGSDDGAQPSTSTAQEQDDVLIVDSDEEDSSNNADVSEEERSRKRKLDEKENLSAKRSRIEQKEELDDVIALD
T3 sequence (P41143 whole entry): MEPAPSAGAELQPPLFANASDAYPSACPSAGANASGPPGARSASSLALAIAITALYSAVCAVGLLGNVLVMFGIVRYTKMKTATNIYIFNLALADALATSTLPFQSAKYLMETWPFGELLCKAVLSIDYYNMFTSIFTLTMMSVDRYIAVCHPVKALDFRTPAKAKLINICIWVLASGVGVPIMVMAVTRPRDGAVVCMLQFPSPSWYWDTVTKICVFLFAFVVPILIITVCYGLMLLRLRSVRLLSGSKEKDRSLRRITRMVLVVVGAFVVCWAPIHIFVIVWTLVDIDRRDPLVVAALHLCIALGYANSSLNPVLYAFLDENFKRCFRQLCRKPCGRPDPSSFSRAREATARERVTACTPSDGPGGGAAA
Chain of Cytochrome P450 3A4 (P08684 whole entry): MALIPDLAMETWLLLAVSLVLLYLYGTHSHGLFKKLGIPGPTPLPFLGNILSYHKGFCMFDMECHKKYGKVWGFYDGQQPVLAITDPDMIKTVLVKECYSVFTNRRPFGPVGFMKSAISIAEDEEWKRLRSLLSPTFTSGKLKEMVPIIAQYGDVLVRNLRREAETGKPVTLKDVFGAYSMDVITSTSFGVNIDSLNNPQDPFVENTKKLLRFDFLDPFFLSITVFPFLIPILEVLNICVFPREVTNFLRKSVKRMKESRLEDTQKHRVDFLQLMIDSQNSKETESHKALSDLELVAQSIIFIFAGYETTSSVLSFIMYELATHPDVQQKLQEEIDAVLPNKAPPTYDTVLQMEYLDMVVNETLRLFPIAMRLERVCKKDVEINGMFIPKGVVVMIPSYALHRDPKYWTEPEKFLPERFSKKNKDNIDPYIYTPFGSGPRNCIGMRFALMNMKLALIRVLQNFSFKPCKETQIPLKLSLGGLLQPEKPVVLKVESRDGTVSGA
Chain of Beta-galactosidase (Q8VNN2 whole entry): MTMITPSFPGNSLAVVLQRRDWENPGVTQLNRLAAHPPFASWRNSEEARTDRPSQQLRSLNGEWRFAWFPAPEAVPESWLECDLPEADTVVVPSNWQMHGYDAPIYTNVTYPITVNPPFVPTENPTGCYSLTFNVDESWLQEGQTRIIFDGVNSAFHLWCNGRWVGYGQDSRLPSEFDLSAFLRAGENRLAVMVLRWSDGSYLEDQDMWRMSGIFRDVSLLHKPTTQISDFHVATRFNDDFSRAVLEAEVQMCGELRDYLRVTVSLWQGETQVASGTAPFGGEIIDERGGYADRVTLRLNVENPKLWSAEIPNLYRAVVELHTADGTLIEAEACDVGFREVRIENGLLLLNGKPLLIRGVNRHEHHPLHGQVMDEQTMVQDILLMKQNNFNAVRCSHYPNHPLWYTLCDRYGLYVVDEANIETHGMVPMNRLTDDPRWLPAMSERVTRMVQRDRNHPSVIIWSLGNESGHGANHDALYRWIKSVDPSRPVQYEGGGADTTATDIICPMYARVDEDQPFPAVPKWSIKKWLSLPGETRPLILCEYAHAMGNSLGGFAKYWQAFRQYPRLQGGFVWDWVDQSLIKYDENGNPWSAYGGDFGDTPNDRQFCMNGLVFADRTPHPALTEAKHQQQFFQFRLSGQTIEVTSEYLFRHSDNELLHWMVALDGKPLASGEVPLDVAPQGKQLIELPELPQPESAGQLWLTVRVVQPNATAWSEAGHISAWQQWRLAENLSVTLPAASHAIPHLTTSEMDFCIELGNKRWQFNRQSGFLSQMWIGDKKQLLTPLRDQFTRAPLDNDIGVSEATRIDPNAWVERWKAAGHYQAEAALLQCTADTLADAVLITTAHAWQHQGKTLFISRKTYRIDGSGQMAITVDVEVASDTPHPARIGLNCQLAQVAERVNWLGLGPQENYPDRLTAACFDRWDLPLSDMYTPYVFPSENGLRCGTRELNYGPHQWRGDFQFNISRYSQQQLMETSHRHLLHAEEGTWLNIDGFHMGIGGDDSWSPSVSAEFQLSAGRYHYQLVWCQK
Chain of Mu-type opioid receptor (P35372 whole entry): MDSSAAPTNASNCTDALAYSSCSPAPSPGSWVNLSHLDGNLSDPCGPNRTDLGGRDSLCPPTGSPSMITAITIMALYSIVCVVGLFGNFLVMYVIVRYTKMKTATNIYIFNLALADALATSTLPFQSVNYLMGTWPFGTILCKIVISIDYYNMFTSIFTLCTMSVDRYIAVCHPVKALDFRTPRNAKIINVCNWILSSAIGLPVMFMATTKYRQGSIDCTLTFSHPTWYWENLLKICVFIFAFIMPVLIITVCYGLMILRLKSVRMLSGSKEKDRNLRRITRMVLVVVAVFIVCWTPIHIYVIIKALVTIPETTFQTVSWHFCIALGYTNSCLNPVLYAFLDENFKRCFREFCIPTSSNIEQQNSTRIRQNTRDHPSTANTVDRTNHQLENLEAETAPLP
Chain of CAAX prenyl protease 1 (P47154 whole entry): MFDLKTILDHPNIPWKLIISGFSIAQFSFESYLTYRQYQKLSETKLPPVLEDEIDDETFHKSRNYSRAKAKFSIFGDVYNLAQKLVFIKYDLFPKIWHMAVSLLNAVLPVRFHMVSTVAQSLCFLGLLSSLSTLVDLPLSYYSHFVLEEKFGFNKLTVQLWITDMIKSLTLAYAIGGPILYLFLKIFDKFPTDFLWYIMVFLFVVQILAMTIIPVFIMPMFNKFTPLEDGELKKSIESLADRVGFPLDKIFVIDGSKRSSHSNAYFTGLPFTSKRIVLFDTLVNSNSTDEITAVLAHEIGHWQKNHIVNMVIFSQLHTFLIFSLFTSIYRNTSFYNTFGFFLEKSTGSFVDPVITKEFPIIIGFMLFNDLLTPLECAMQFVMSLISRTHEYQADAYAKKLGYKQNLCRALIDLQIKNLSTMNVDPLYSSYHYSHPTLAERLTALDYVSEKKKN

O=C(Cn1c2ccccc2c(=O)c2ccccc21)Nc1ccccc1F
AC50 [1]: 6.04 µM (active)
AC50 [2]: 0.345 µM (active)

Cc1c(C(=O)Nc2ccc(F)cc2)cn2c(nc3ccccc32)c1C#N
IC50 [3]: 41.7 µM (active)

CCOC(=O)Cn1c2ccccc2c2nc3ccccc3nc21
IC50 [3]: 29.6 µM (active)
EC50 [4]: 107 µM (active)

O=C(Nc1ccc(N2CCN(C(=O)c3ccco3)CC2)c(Cl)c1)c1cccs1
CC50 [5]: > 20 µM (active)
CC50 [6]: > 40 µM (active)

O=C(NNC1=Nc2ccccc2SC1)c1ccc(Cl)cc1
EC50 [7]: 18.4 µM (active)
EC50 [8]: > 31.5 µM (inactive)
IC50 [9]: > 32 µM
EC50 [10]: > 32 µM (inactive)
IC50 [11]: 10.5 µM (active)
EC50 [12]: 8.56 µM (active)
EC50 [13]: 11 µM (active)
EC50 [14]: > 32 µM (inactive)
IC50 [15]: > 32 µM (inactive)

CN1CCN(c2ncc3nc(-c4ccc(Cl)cc4)c(=O)n(C)c3n2)CC1
AC50 [16]: inconclusive

O=C(N/N=C/c1ccc(O)cc1)c1ccc(-c2csc(Nc3ccc(Cl)cc3)n2)cc1
IC50 [17]: > 100 µM (inactive)
IC50 [18]: > 100 µM (inactive)
IC50 [19]: 24.1 µM (active)
IC50 [20]: > 100 µM (inactive)
IC50 [21]: > 100 µM (inactive)
